In patent US12187721B2, “Protein tyrosine phosphatase inhibitors” (Array BioPharma Inc., priority 2018, dated 2025) one finds IC50 data, which are given here for 33 compounds.

The term IC50 denotes the point on the concentration scale where inhibition reaches its midpoint.

Read-outs that look alike come from different tables or passages of the source.

The target in the assay is T1, full-length SHP2 (His6-tagged SHP2(2-527)) (Homo sapiens, UniProt Q06124).
T1 construct: His6-tagged SHP2(2-527); His6; made in house; host or cells: E. coli
The assay can be described thus: SHP2 Enzymatic Assay (fluorescence intensity kinetic assay, DiFMUP hydrolysis). The class given is biochemical. In short, it runs like this:
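1 nM His6-SHP2(2-527), activated by 1 μM bis-phosphopeptide, hydrolysed 50 μM DiFMUP in 25 mM HEPES pH 7.4 with 1 mM DTT, 50 mM KCl and 2% DMSO. DiFMU fluorescence (Ex 355/Em 460 nm) was read kinetically for 15 min at ambient temperature.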

T1 sequence (Q06124 2-527): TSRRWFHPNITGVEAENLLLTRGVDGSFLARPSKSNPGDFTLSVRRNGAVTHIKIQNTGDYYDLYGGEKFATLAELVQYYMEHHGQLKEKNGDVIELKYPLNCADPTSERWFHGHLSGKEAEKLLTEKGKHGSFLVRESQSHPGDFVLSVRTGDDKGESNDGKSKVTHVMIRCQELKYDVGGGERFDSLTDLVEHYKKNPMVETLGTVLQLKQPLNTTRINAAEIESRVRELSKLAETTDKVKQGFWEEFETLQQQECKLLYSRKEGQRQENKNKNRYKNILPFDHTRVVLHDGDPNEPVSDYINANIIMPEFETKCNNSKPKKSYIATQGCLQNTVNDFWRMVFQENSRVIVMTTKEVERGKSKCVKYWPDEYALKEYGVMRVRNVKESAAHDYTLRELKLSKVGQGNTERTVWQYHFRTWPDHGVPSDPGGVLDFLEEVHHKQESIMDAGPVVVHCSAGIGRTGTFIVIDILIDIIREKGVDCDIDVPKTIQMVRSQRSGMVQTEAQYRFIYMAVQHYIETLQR

For `C[C@@H]1OCC2(CCN(c3cnc4nc(Sc5cc(N)ncc5Cl)ccc4n3)CC2)[C@@H]1N` [Example 144, (3S,4S)-8-(6-((2-amino-5-chloropyridin-4-yl)thio)pyrido[2,3-b]pyrazin-2-yl)-3-methyl-2-oxa-8-azaspiro[4,5]decan-4-amine], the IC50 was 89 nM.

As for `Cc1nccc(Sc2ccc3nc(N4CCC5(CC4)Cc4cc(O)ccc4[C@H]5N)cnc3n2)c1Cl` [Example 156, (S)-1-amino-1′-(6-((3-chloro-2-methylpyridin-4-yl)thio)pyrido[2,3-b]pyrazin-2-yl)-1,3-dihydrospiro[indene-2,4′-piperidin]-5-ol], the half-inhibitory concentration (IC50) amounted to 32 nM. Consider `COCCC1(N)CCN(c2cnc3nc(Sc4ccnc(N)c4Cl)ccc3n2)CC1` [Example 182, 4-((2-(4-amino-4-(2-methoxyethyl)piperidin-1-yl)pyrido[2,3-b]pyrazin-6-yl)thio)-3-chloropyridin-2-amine], for which the IC50 came out at 80 nM.

As to `Cn1ncc2cccc(Sc3ccc4nc(N5CCC(C)(N)CC5)cnc4n3)c21` [Example 34, 4-methyl-1-(6-((1-methyl-1H-indazol-7-yl)thio)pyrido[2,3-b]pyrazin-2-yl)piperidin-4-amine], the IC50 worked out at 2600 nM. In turn, `Nc1nccc(Sc2ccc3nc(N4CCC5(CC4)Cc4c(Cl)cccc4[C@H]5N)cnc3n2)c1Cl` [Example 159, (S)-1′-(6-((2-amino-3-chloropyridin-4-yl)thio)pyrido[2,3-b]pyrazin-2-yl)-4-chloro-1,3-dihydrospiro[indene-2,4′-piperidin]-1-amine] showed an IC50 of 50 nM.

The compound `NCC1CN(c2cnc3nc(-c4cccc(Cl)c4Cl)ccc3n2)CCO1` (stereo not drawn) [Example 64, (4-(6-(2,3-dichlorophenyl)pyrido[2,3-b]pyrazin-2-yl)morpholin-2-yl)methanamine] gave a concentration for half-maximal inhibition (IC50) of 730 nM. Same read-out and setting: with `CC1(N)CCN(c2cnc3nc(Nc4cccc(Cl)c4Cl)ccc3n2)CC1` [Example 17, 2-(4-amino-4-methylpiperidin-1-yl)-N-(2,3-dichlorophenyl)pyrido[2,3-b]pyrazin-6-amine] the figure was 870 nM; with `C[C@@H]1C[C@H](N)CCN1c1cnc2nc(Sc3ccnc(N)c3Cl)ccc2n1` [Example 121, 4-((2-((2R,4R)-4-amino-2-methylpiperidin-1-yl)pyrido[2,3-h]pyrazin-6-yl)thio)-3-chloropyridin-2-amine], 99 nM. `NCC1CN(c2cnc3nc(Sc4cccc(Cl)c4Cl)ccc3n2)CCO1` (stereo not drawn) [Example 63, (4-(6-((2,3-dichlorophenyl)thio)pyrido[2,3-b]pyrazin-2-yl)morpholin-2-yl)methanamine] yielded an IC50 of 280 nM. `Nc1nccc(Sc2ccc3nc(N4CC5CCC4CNC5)cnc3n2)c1Cl` (stereo not drawn) [Example 202, 4-((2-(3,6-diazabicyclo[3.2.2]nonan-6-yl)pyrido[2,3-b]pyrazin-6-yl)thio)-3-chloropyridin-2-amine]: the IC50 was 132 nM.

For the compound `NCC1CC2CCC(C1)N2c1cnc2nc(Sc3ccnc(N)c3Cl)ccc2n1` (stereo not drawn) [Example 102, 4-((2-(3-(aminomethyl)-8-azabicyclo[3.2.1]octan-8-yl)pyrido[2,3-b]pyrazin-6-yl)thio)-3-chloropyridin-2-amine], half-maximal inhibition (IC50) was put at 44 nM. On to `CNc1nccc(Sc2ccc3nc(N4CCC(C)(N)CC4)cnc3n2)c1Cl` [Example 161, 4-((2-(4-amino-4-methylpiperidin-1-yl)pyrido[2,3-b]pyrazin-6-yl)thio)-3-chloro-N-methylpyridin-2-amine], for which the concentration for half-maximal inhibition (IC50) was found to be 45 nM.

With `CC1(N)CCN(c2cnc3nc(Oc4cccc(Cl)c4Cl)ccc3n2)CC1` [Example 15, 1-(6-(2,3-dichlorophenoxy)pyrido[2,3-b]pyrazin-2-yl)-4-methylpiperidin-4-amine], the IC50 (full-length SHP2 with 1 μM activating peptide, 50 μM DiFMUP, single assay or mean of multiple assays, read-out: Biological Example 1 IC50) turned out to be 340 nM. Turning to `COCC1(N)CCN(c2cnc3nc(Sc4ccnc(N)c4Cl)ccc3n2)CC1` [Example 53, 4-((2-(4-amino-4-(methoxymethyl)piperidin-1-yl)pyrido[2,3-b]pyrazin-6-yl)thio)-3-chloropyridin-2-amine], the midpoint of inhibition, the IC50, lay at 123 nM. On to `CCC1(N)CCN(c2cnc3nc(Sc4ccnc(N)c4Cl)ccc3n2)CC1` [Example 130, 4-((2-(4-amino-4-ethylpiperidin-1-yl)pyrido[2,3-b]pyrazin-6-yl)thio)-3-chloropyridin-2-amine], for which the midpoint of inhibition, the IC50, lay at 96 nM.

Compound `CC1(N)CCN(c2cnc3nc(-c4cccc(Cl)c4F)ccc3n2)CC1` [Example 16, 1-(6-(3-chloro-2-fluorophenyl)pyrido[2,3-b]pyrazin-2-yl)-4-methylpiperidin-4-amine] had an IC50 of 290 nM.

The compound `CC1(N)CCN(c2cnc3nc(-c4ccnc(NCCO)c4Cl)ccc3n2)CC1` [Example 47, 2-((4-(2-(4-amino-4-methylpiperidin-1-yl)pyrido[2,3-b]pyrazin-6-yl)-3-chloropyridin-2-yl)amino)ethan-1-ol] showed an IC50 of 6000 nM. In turn, `Nc1nccc(Sc2ccc3nc(N4CCC5NCC5C4)cnc3n2)c1Cl` (stereo not drawn) [Example 103, 4-((2-(3,7-diazabicyclo[4.2.0]octan-3-yl)pyrido[2,3-b]pyrazin-6-yl)thio)-3-chloropyridin-2-amine] displayed an IC50 of 79 nM. Same read-out and setting: with `CC1(N)CCN(c2cnc3nc(Sc4ccc(N)nc4Cl)ccc3n2)CC1` [Example 97, 5-((2-(4-amino-4-methylpiperidin-1-yl)pyrido[2,3-b]pyrazin-6-yl)thio)-6-chloropyridin-2-amine] the figure was 176 nM; with `C[C@@H]1OCC2(CCN(c3cnc4nc(Sc5ccc(N)nc5Cl)ccc4n3)CC2)[C@@H]1N` [Example 105, (3S,4S)-8-(6-((6-amino-2-chloropyridin-3-yl)thio)pyrido[2,3-b]pyrazin-2-yl)-3-methyl-2-oxa-8-azaspiro[4.5]decan-4-amine], 82 nM. On to `Cc1c(Sc2ccc3nc(N4CCC5(CC4)CO[C@@H](C)[C@H]5N)cnc3n2)ccnc1N` [Example 72, (3S,4S)-8-(6-((2-amino-3-methylpyridin-4-yl)thio)pyrido[2,3-b]pyrazin-2-yl)-3-methyl-2-oxa-8-azaspiro[4,5]decan-4-amine], for which it took 149 nM to reach half-maximal inhibition (IC50). In turn, `Nc1nccc(Sc2ccc3nc(N4[C@@H]5CCC[C@H]4CC(N)C5)cnc3n2)c1Cl` (stereo partly drawn) [Example 56, (1R,5S)-9-(6-((2-amino-3-chloropyridin-4-yl)thio)pyrido[2,3-b]pyrazin-2-yl)-9-azabicyclo[3.3.1]nonan-3-amine] yielded an IC50 of 42 nM. In turn, `COCCNc1nccc(Sc2ccc3nc(N4CCC5(CC4)CO[C@@H](C)[C@H]5N)cnc3n2)c1Cl` [Example 183, (3S,4S)-8-(6-((3-chloro-2-((2-methoxyethyl)amino)pyridin-4-yl)thio)pyrido[2,3-b]pyrazin-2-yl)-3-methyl-2-oxa-8-azaspiro[4.5]decan-4-amine] came in with a half-inhibitory concentration (IC50) of 268 nM. In turn, `N[C@@H]1c2ccccc2CC12CCN(c1cnc3nc(Sc4cnc5ccc(Cl)cn45)ccc3n1)CC2` [Example 127, (S)-1′-(6-((6-chloroimidazo[1,2-a]pyridin-3-yl)thio)pyrido[2,3-b]pyrazin-2-yl)-1,3-dihydrospiro[indene-2,4′-piperidin]-1-amine] registered an IC50 of 82 nM. On to `Nc1nccc(Sc2ccc3nc(N4CCC5(CC4)CNC5)cnc3n2)c1Cl` [Example 54, 4-((2-(2,7-diazaspiro[3.5]nonan-7-yl)pyrido[2,3-b]pyrazin-6-yl)thio)-3-chloropyridin-2-amine], for which the midpoint of inhibition, the IC50, lay at 60 nM. Same read-out and setting: with `COCCNc1nccc(Sc2ccc3nc(N4CCC(C)(N)CC4)cnc3n2)c1Cl` [Example 194, 4-((2-(4-amino-4-methylpiperidin-1-yl)pyrido[2,3-b]pyrazin-6-yl)thio)-3-chloro-N-(2-methoxyethyl)pyridin-2-amine] the figure was 238 nM. Regarding `C[C@@H]1OCC2(CCN(c3cnc4nc(-c5ccccc5)ccc4n3)CC2)[C@@H]1N` [Example 66, (3S,4S)-3-methyl-8-(6-phenylpyrido[2,3-b]pyrazin-2-yl)-2-oxa-8-azaspiro[4.5]decan-4-amine], 2750 nM corresponded to half-maximal inhibition (IC50). `CC1(N)CCN(c2cnc3nc(-c4cccc(F)c4Cl)ccc3n2)CC1` [Example 152, 1-(6-(2-chloro-3-fluorophenyl)pyrido[2,3-b]pyrazin-2-yl)-4-methylpiperidin-4-amine]: the 50% inhibitory concentration (IC50) was found to be 30 nM. Still for that read-out and setting: under `N[C@@H]1c2ccccc2CC12CCN(c1cnc3nc(Oc4ccc(F)cc4)ccc3n1)CC2` [Example 123, (S)-1′-(6-(4-fluorophenoxy)pyrido[2,3-b]pyrazin-2-yl)-1,3-dihydrospiro[indene-2,4′-piperidin]-1-amine] stands 21 nM; under `CC(=O)N1CCN(c2nccc(Sc3ccc4nc(N5CCC6(CC5)CO[C@@H](C)[C@H]6N)cnc4n3)c2Cl)CC1` [Example 80, 1-(4-(4-((2-((3S,4S)-4-amino-3-methyl-2-oxa-8-azaspiro[4.5]decan-8-yl)pyrido[2,3-b]pyrazin-6-yl)thio)-3-chloropyridin-2-yl)piperazin-1-yl)ethan-1-one], 743 nM; under `C[C@@H]1OCC2(CCN(c3cnc4nc(Sc5ccnc(N6CCC(O)C6)c5Cl)ccc4n3)CC2)[C@@H]1N` (stereo partly drawn) [Example 89, 1-(4-((2-((3S,4S)-4-amino-3-methyl-2-oxa-8-azaspiro[4.5]decan-8-yl)pyrido[2,3-b]pyrazin-6-yl)thio)-3-chloropyridin-2-yl)pyrrolidin-3-ol], 79 nM. Compound `Nc1nccc(Sc2ccc3nc(N4CCC5(CC4)Cc4ncccc4[C@@H]5N)cnc3n2)c1Cl` [Example 167, (R)-1′-(6-((2-amino-3-chloropyridin-4-yl)thio)pyrido[2,3-b]pyrazin-2-yl)-5,7-dihydrospiro[cyclopenta[b]pyridine-6,4′-piperidin]-5-amine] showed an IC50 of 50 nM.

Turning to `C[C@@H]1OCC2(CCN(c3cnc4nc(N5CCCc6ccccc65)ccc4n3)CC2)[C@@H]1N` [Example 69, (3S,4S)-8-(6-(3,4-dihydroquinolin-1(2H)-yl)pyrido[2,3-b]pyrazin-2-yl)-3-methyl-2-oxa-8-azaspiro[4,5]decan-4-amine], the IC50 came to 79 nM.
